Holding throughout (type): functional
Assay [1] has as its target DNA (cytosine-5)-methyltransferase 1 (Homo sapiens, UniProt P26358). The experiment in a line: inhibition of DNA methylation by DNMT1 – biochemical, fluorescent molecular beacon, confirmation (AID 602386).
The target in assay [2] is T1, Sentrin-specific protease 6 (Homo sapiens, UniProt Q9GZR1).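 Note: Luminescence-based dose-response confirmatory assay of SENP6 inhibition, following up an ultra-high-throughput screen.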
T1 sequence (Q9GZR1 whole entry): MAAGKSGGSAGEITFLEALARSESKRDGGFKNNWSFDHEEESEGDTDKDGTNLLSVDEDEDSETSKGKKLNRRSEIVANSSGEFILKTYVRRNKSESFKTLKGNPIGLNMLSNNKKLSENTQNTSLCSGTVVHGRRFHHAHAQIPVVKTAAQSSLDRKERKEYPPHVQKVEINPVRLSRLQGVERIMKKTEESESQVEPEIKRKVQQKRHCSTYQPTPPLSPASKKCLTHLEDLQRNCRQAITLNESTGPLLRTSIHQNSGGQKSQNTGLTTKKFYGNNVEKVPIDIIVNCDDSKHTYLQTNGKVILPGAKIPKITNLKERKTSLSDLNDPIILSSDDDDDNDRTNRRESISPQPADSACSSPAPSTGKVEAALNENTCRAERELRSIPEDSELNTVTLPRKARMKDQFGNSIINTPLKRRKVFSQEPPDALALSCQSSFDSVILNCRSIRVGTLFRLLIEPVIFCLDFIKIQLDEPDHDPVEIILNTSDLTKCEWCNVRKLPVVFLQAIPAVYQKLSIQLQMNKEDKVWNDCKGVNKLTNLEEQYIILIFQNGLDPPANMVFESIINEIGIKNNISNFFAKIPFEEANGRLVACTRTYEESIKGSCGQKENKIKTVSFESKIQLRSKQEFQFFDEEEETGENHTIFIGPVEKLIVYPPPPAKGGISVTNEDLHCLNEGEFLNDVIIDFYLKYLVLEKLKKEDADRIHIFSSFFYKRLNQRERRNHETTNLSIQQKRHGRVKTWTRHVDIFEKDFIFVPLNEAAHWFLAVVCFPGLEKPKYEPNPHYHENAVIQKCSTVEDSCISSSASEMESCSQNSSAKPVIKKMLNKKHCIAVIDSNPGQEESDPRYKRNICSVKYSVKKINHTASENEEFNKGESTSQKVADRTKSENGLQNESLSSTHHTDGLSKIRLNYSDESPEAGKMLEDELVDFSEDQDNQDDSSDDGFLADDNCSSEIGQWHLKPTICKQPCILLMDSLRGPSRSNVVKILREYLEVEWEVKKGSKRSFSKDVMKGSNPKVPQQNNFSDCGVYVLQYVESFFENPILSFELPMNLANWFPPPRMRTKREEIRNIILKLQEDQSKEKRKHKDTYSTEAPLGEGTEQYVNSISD

Assay [3] has as its target T2, Endoribonuclease toxin MazF (Escherichia coli K-12, UniProt P0AE70).
T2 sequence (P0AE70 whole entry): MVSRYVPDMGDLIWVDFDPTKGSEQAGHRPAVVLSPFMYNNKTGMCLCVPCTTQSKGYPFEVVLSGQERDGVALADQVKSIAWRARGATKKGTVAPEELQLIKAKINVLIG
In words: activation of MazEF endoribonuclease cleavage – biochemical, fluorescence, single-stranded RNA substrate, uHTS hits, dose response (AID 588481).

The nature of assay [4]: IC50 of Artemis nuclease activity blockers – biochemical, fluorescence intensity, dose response (AID 720701).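 Note: Artemis endonuclease enzyme.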
The nature of assay [5]: Luminescence-based counterscreen assay for KLF5 inhibitors: dose response cell-based high throughput screening assay to identify cytotoxic compounds using the IEC-6 intestinal epithelial cell line. [Related pubchem assays: 1700 (Primary screen.), 1834 (Confirmation screen.), 1858 (Summary AID.), 1905 (Counterscreen.)]. (A counterscreen serves to expose hits that act by an unwanted route or on another target.)

The target of assay [6] is T3, Replicative DNA helicase DnaB (Mycobacterium tuberculosis, UniProt P9WMR3).
T3 sequence (P9WMR3 whole entry): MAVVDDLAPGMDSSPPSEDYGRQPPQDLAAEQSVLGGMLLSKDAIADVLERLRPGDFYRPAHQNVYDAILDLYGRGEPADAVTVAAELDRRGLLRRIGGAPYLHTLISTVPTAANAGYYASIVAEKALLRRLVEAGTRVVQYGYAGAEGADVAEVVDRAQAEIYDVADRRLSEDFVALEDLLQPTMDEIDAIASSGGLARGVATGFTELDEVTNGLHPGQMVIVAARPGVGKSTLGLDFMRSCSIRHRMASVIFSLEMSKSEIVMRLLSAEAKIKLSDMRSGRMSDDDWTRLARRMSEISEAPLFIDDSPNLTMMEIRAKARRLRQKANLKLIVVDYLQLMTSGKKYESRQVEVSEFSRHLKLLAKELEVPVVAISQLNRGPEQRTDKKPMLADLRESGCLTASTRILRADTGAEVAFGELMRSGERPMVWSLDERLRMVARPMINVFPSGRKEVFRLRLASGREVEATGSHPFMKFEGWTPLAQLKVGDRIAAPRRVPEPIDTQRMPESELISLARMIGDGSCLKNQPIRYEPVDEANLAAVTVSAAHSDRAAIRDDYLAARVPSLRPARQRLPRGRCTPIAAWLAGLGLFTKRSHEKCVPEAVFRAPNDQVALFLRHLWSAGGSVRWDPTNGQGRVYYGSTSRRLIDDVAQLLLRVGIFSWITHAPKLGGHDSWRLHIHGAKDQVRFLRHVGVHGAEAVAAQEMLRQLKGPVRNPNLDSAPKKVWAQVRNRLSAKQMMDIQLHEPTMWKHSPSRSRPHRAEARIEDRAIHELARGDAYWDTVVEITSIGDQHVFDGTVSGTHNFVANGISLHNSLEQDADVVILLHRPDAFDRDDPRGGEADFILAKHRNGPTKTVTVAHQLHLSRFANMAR
In words: DnaB intein splicing inhibitors, dose response, biochemical, cell-free fluorescence (AID 449749).

Assay [7] in a line: viability loss in MITF-independent A375 cells – cell-based, CellTiter-Glo luminescence, dry powder, set 2, counter-screen for MITF inhibitor project, dose response (AID 624489).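 Note: actives are compounds lowering A375 viability meaning general cytotoxicity.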 The note with it: A-375. In general terms: ATP-based viability assays read luminescence as a measure of living cells.

Data on two molecules can be found in ChEMBL document CHEMBL1201862, “PubChem BioAssay data set” (2004).

Calls of active or inactive are those of the source.

Sequence of DNA (cytosine-5)-methyltransferase 1 (P26358 whole entry): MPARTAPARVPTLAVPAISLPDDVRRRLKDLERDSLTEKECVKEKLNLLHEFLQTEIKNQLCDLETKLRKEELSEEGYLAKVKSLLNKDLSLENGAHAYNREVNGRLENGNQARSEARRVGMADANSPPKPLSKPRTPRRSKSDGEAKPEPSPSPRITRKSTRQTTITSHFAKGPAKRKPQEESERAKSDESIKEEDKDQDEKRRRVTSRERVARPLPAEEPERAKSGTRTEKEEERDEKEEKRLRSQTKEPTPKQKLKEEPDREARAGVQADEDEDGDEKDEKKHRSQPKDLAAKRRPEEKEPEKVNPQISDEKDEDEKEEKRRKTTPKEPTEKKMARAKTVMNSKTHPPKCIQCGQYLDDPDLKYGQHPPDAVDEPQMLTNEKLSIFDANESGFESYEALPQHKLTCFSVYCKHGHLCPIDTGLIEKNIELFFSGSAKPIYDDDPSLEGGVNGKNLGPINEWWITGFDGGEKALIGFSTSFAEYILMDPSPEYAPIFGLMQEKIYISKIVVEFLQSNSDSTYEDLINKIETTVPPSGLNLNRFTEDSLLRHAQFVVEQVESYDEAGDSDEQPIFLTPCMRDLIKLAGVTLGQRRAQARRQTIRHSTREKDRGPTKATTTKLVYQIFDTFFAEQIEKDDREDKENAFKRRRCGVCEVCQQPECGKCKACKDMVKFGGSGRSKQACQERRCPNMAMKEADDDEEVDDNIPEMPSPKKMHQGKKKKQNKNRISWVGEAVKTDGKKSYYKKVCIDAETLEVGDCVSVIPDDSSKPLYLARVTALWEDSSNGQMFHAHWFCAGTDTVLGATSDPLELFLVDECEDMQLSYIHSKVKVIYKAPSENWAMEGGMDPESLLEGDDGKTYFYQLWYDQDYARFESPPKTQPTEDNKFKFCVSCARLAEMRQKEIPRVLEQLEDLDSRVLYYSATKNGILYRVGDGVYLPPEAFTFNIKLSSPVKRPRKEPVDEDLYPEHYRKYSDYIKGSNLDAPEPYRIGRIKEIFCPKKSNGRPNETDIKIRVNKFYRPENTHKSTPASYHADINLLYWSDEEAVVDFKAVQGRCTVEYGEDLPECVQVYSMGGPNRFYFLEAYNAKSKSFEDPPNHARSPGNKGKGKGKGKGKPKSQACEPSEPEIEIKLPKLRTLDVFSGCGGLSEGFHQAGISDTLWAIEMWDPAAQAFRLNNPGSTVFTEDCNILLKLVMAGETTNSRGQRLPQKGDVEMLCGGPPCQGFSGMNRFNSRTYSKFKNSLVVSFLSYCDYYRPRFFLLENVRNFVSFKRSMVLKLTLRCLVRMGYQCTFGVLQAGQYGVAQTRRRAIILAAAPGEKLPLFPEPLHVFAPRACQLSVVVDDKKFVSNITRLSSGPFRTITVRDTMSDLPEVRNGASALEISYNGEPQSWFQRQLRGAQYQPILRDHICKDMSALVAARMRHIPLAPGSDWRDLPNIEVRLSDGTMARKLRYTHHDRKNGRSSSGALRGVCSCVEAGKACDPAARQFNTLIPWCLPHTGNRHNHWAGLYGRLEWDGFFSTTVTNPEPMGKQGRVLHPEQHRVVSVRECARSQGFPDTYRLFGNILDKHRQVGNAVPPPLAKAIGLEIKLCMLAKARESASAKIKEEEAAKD

For orientation: IC50 means the concentration that inhibits the measured activity by half. Broadly, the EC50 is the concentration at which the effect is half-maximal. As for `Oc1[nH]c2ccccc2c1N=Nc1ccc(F)cc1`, the 50% inhibitory concentration (IC50) in assay [1] is 19.3 µM (active); in assay [2], 2.03 µM (active). Moreover, the EC50 in assay [3] was > 99 µM (inactive).
For orientation: AC50 means the midpoint of the concentration-response curve, whichever way the signal moves. For `O=C1C(Nc2ccccc2)=C(N2CCCCC2)C(=O)c2ccccc21`, the half-inhibitory concentration (IC50) in assay [4] is 18.9 µM (active); in assay [5] it was > 39.8 µM (not active). In addition, the AC50 in assay [6] is 68.5 µM (active); in assay [7], 24.9 µM (active).
